Results as given in patent publication US20130274258A1, “CARBAZOLE AND CARBOLINE DERIVATIVES, AND PREPARATION AND THERAPEUTIC APPLICATIONS THEREOF” (PHILIP MORRIS PRODUCTS S.A., priority 2010, published 2013).

Tested on: Jurkat cells
Assay: Jurkat cell viability, resazurin (Alamar Blue) assay
Type: cell-based
Conditions: Jurkat cells, 22 h then resazurin 4 h, three experiments in duplicates; for IC50: Homo sapiens, read-out: IC50
Description: The compounds were tested for pharmacological activity. In each of the tests, each compound was tested at […] in duplicates. […] The percentage of response relative to the DMSO control was then calculated for the mean value of the duplicates of each test. The values of the three tests were finally averaged and the standard deviations calculated.
Jurkat cells (10'000 cells/well) were incubated in the presence of various concentrations of compounds, doxorubicin or staurosporine. Twenty-two hours later, cells were incubated with resazurin (20 μg/ml) for 4 hours and fluorescence was measured at 590 nm.

SMILES	IC50	IC50 (μM)
Cc1cccc2c1[nH]c1ccc(-c3ccc4c(c3)CCO4)cc12 [Example E58, 6-(2,3-dihydrobenzofuran-5-yl)-1-methyl-9H-carbazole]	3750 nM	
COC(=O)c1cccc(-c2ccc3[nH]c4c(C)nccc4c3c2)c1 [Example E14, 6-(3-methoxycarbonylphenyl)-1-methyl-9H-pyrido[3,4-b]indole]	7230 nM	
Cc1nccc2c1[nH]c1ccc(-c3cccc(N(C)C)c3)cc12 [Example C5, 6-(3-(N,N-dimethylamino)phenyl)-1-methyl-9H-pyrido[3,4-b]indole]	11500 nM	
COc1ccc(-c2ccc3[nH]c4c(C)nccc4c3c2)cc1 [Example C4, 6-(4-methoxyphenyl)-1-methyl-9H-pyrido[3,4-b]indole]		not active
Cc1nccc2c1[nH]c1ccc(-c3cccc(-c4ccco4)c3)cc12 [Example E55, 6-(3-(furan-2-yl)phenyl)-1-methyl-9H-pyrido[3,4-b]indole]	2200 nM	
Cc1nccc2c1[nH]c1ccc(-c3cccc(CN)c3)cc12 [Example E10, 6-(3-(aminomethyl)phenyl)-1-methyl-9H-pyrido[3,4-b]indole]	988 nM	
CC(=O)OCc1cccc(-c2ccc3[nH]c4c(C)nccc4c3c2)c1 [Example E15, 6-(3-(acetoxymethyl)phenyl)-1-methyl-9H-pyrido[3,4-b]indole]	34 nM	
Cc1nccc2c1[nH]c1ccc(-c3ccccc3F)cc12 [Example E4, 6-(2-fluorophenyl)-1-methyl-9H-pyrido[3,4-b]indole]	4070 nM	
Cc1nccc2c1[nH]c1ccc(-c3ccc(C#N)cc3)cc12 [Example E22, 6-(4-cyanophenyl)-1-methyl-9H-pyrido[3,4-b]indole]	5000 nM	
Cc1nccc2c3cc(-c4ccc5c(c4)CCO5)ccc3n(Cc3ccccc3)c12 [Example C12]	> 10000 nM	
COc1cncc(-c2ccc3[nH]c4c(C)nccc4c3c2)c1 [Example E53, 6-(5-methoxypyridin-3-yl)-1-methyl-9H-pyrido[3,4-b]indole]	2610 nM	
CCCCCn1c2ccc(-c3ccc4c(c3)CCO4)cc2c2ccnc(C)c21 [Example C13]	> 10000 nM	
Cc1nccc2c1[nH]c1ccc(-c3cncnc3)cc12 [Example C8, 6-(pyrimidin-5-yl)-1-methyl-9H-pyrido[3,4-b]indole]	27800 nM	
Cc1nccc2c1[nH]c1ccc(-c3cccc(S(=O)(=O)NCCO)c3)cc12 [Example E47, N-(2-hydroxyethyl)-3-(1-methyl-9H-pyrido[3,4-b]indol-6-yl)benzenesulfonamide]	1210 nM	
Cc1nccc2c1[nH]c1ccc(-c3ccc(C(F)(F)F)cc3)cc12 [Example C3, 6-(4-(trifluoromethyl)phenyl)-1-methyl-9H-pyrido[3,4-b]indole]		not active
Cc1nccc2c1[nH]c1ccc(-c3ccc4ccccc4c3)cc12 [Example C1, 6-(naphthalen-2-yl)-1-methyl-9H-pyrido[3,4-b]indole]		not active
CC(=O)c1cccc(-c2ccc3[nH]c4c(C)nccc4c3c2)c1 [Example E13, 6-(3-acetylphenyl)-1-methyl-9H-pyrido[3,4-b]indole]	2030 nM	
Cc1ccccc1-c1ccc2[nH]c3c(C)nccc3c2c1 [Example C9, 6-(2-methylphenyl)-1-methyl-9H-pyrido[3,4-b]indole]	41800 nM	
Cc1nccc2c1[nH]c1ccc(-c3ccc(Cl)cc3)cc12 [Example C2, 6-(4-chlorophenyl)-1-methyl-9H-pyrido[3,4-b]indole]		not active
Cc1nccc2c1[nH]c1ccc(-c3ccsc3)cc12 [Example C10, 6-(thiophen-3-yl)-1-methyl-9H-pyrido[3,4-b]indole]		not active
Cc1nccc2c1[nH]c1ccc(-c3cc(C#N)ccc3F)cc12 [Example E24, 6-(5-cyano-2-fluorophenyl)-1-methyl-9H-pyrido[3,4-b]indole]	968 nM	
Cc1nccc2c1[nH]c1ccc(-c3cccc(Cc4nn[nH]n4)c3)cc12 [Example E27, 6-(((2H-tetrazol-5-yl)methyl)phenyl)-1-methyl-9H-pyrido[3,4-b]indole]	2200 nM	
Cc1nccc2c1[nH]c1ccc(-c3cccc(CC(=O)O)c3)cc12 [Example C7, 6-(3-carboxymethylphenyl)-1-methyl-9H-pyrido[3,4-b]indole]		not active
CCNC(=O)NCc1cccc(-c2ccc3[nH]c4c(C)nccc4c3c2)c1 [Example E41]	1240 nM	
C=CCn1c2ccc(-c3ccc4c(c3)CCO4)cc2c2ccnc(C)c21 [Example C11]	> 10000 nM	
Cc1nccc2c1[nH]c1ccc(-c3cccc(C(C)O)c3)cc12 (stereo not shown) [Example E19, 6-(3-(1-hydroxyethyl)phenyl)-1-methyl-9H-pyrido[3,4-b]indole]	1400 nM	

Continued by falling IC50, values first:

IC50	IC50 (μM)	SMILES
850 nM		Cc1nccc2c1[nH]c1ccc(-c3cccc(CN(C)C)c3)cc12 [Example E42, N,N-dimethyl-1-(3-(1-methyl-9H-pyrido[3,4-b]indol-6-yl)phenyl)methanamine]
733 nM		Cc1nccc2c1[nH]c1ccc(-c3cccc(CN4CCOCC4)c3)cc12 [Example E56]
627 nM		Cc1nccc2c1[nH]c1ccc(-c3cccc(C(=O)NCCO)c3)cc12 [Example E48, N-(2-hydroxyethyl)-3-(1-methyl-9H-pyrido[3,4-b]indol-6-yl)benzamide]
567 nM		Cc1nccc2c1[nH]c1ccc(-c3cccc(F)c3)cc12 [Example E5, 6-(3-fluorophenyl)-1-methyl-9H-pyrido[3,4-b]indole]
490 nM		Cc1nccc2c1[nH]c1ccc(-c3ccc4c(c3)OCO4)cc12 [Example E30, 6-(benzo[d][1,3]dioxol-5-yl)-1-methyl-9H-pyrido[3,4-b]indole]
374 nM		Cc1nccc2c1[nH]c1ccc(-c3ccc4[nH]ccc4c3)cc12 [Example E26, 6-(1H-indol-5-yl)-1-methyl-9H-pyrido[3,4-b]indole]
340 nM		CCc1nccc2c1[nH]c1ccc(-c3cccc(COCCOC)c3)cc12 [Example E43, 6-(3-((2-methoxyethoxy)methyl)phenyl)-1-ethyl 9H-pyrido[3,4-b]indole]
302 nM		CC(C)c1nccc2c1[nH]c1ccc(-c3ccc4c(c3)CCO4)cc12 [Example E39, 6-(2,3-dihydrobenzofuran-5-yl)-1-isopropyl-9H-pyrido[3,4-b]indole]
260 nM		Cc1nccc2c1[nH]c1ccc(-c3cccc(S(N)(=O)=O)c3)cc12 [Example E46, 3-(1-methyl-9H-pyrido[3,4-b]indol-6-yl)benzenesulfonamide]
230 nM		CCCc1nccc2c1[nH]c1ccc(-c3ccc4c(c3)CCO4)cc12 [Example E38, 6-(2,3-dihydrobenzofuran-5-yl)-1-propyl-9H-pyrido[3,4-b]indole]
225 nM		Cc1nccc2c1[nH]c1ccc(-c3cccc(CNC(=O)N4CCN(C)CC4)c3)cc12 [Example E49]
200 nM		Cc1nccc2c1[nH]c1ccc(-c3cccc(CN4CCN(C)CC4)c3)cc12 [Example E57, 6-(3-((4-methylpiperazin-1-yl)methyl)phenyl)-1-methyl 9H-pyrido[3,4-b]indole]
195 nM		Cc1nccc2c1[nH]c1ccc(-c3cccc(O)c3)cc12 [Example E17, 6-(3-hydroxyphenyl)-1-methyl-9H-pyrido[3,4-b]indole]
128 nM		Cc1cc(C)cc(-c2ccc3[nH]c4c(C)nccc4c3c2)c1 [Example E8, 6-(3,5-dimethylphenyl)-1-methyl-9H-pyrido[3,4-b]indole]
96 nM		Cc1nccc2c1[nH]c1ccc(-c3cccc(N)c3)cc12 [Example E33, 6-(3-aminophenyl)-1-methyl-9H-pyrido[3,4-b]indole]
96 nM		FC(F)(F)c1nccc2c1[nH]c1ccc(-c3ccc4c(c3)CCO4)cc12 [Example E36, 6-(2,3-dihydrobenzofuran-5-yl)-1-trifluoromethyl-9H-pyrido[3,4-b]indole]
64 nM		Cc1nccc2c1[nH]c1ccc(-c3cccc(CC#N)c3)cc12 [Example E23, 6-(3-cyanomethylphenyl)-1-methyl-9H-pyrido[3,4-b]indole]
53 nM		Cc1nccc2c1[nH]c1ccc(-c3ccc4c(c3)CCCO4)cc12 [Example E54, 6-(chroman-6-yl)-1-methyl-9H-pyrido[3,4-b]indole]
46 nM		Cc1nccc2c1[nH]c1ccc(-c3cccc(CO)c3)cc12 [Example E18, 6-(3-hydroxymethylphenyl)-1-methyl-9H-pyrido[3,4-b]indole]
46 nM		Cc1nccc2c1[nH]c1ccc(-c3cccc(C(N)=O)c3)cc12 [Example E12, 6-(3-aminocarbonylphenyl)-1-methyl-9H-pyrido[3,4-b]indole]
34 nM		CC(=O)NCc1cccc(-c2ccc3[nH]c4c(C)nccc4c3c2)c1 [Example E11, 6-(3-(acetamidomethyl)phenyl)-1-methyl-9H-pyrido[3,4-b]indole]
28 nM		Cc1nccc2c1[nH]c1ccc(-c3cccc(NC=O)c3)cc12 [Example E34, 6-(3-formamidophenyl)-1-methyl-9H-pyrido[3,4-b]indole]
18 nM		CCc1nccc2c1[nH]c1ccc(-c3cccc(NC(C)=O)c3)cc12 [Example E52, N-(3-(1-ethyl-9H-pyrido[3,4-b]indol-6-yl)phenyl)acetamide]
16 nM		CCc1nccc2c3cc(-c4cccc(C(N)=O)c4)ccc3n(C)c12 [Example E50, 3-(1-ethyl-9-methyl-9H-pyrido[3,4-b]indol-6-yl)benzamide]
9 nM		Cc1nccc2c3cc(-c4ccc5c(c4)CCO5)ccc3n(C)c12 [Example E51, 6-(2,3-dihydrobenzofuran-5-yl)-1,9-dimethyl-9H-pyrido[3,4-b]indole]
4 nM		CCc1nccc2c1[nH]c1ccc(-c3ccc4c(c3)CCO4)cc12 [Example E37, 6-(2,3-dihydrobenzofuran-5-yl)-1-ethyl-9H-pyrido[3,4-b]indole]
